Patent US11203777B2, “Method of preparing sterilized compositions for stabilization of extracellular nucleic acids” (Qiagen GmbH, priority 2015, dated 2021)
One block for each compound: values may come before it. Residues, ends and D or L forms follow the SMILES beside them. *: point of attachment. Cbz = O=C(OCc1ccccc1)*; CH2F = FC*

Legend:
[1] = test system: ccfDNA level in whole blood (66 bp and 500 bp fragments of the 18S rDNA gene); assay: ccfDNA stabilization in stored whole blood, real time PCR of 18S rDNA fragments in plasma; settings: for copy numbers of the 500 bp fragment of the 18S rDNA gene: caspase inhibitor approx. 5 μM in stabilized blood; for change of copy numbers (x fold change) of 66 bp and 500 bp fragments of the 18S rDNA gene: 6 days at room temperature, FIG. 3
Procedure: Blood was drawn into Alpha BCT for stabilization of the ccfDNA level. 10 ml spray dried EDTA tubes (BD) with 1.8 mg K2EDTA per ml of whole blood served as non-stabilized negative control. Blood and reagents were mixed by inverting the tube ten times. Stabilized and non-stabilized blood samples were stored at room temperature standing in an upright position.
Whole blood samples were centrifuged at ambient temperature for 15 min at 1.900×g. The clear plasma fraction was transferred into a fresh centrifuge tube. In a second round, plasma samples were centrifuged for 10 min at 16.000×g in case of non-stabilized EDTA-blood or for 10 min at 1.900×g in case of stabilized Alpha BCT blood. The supernatant was transferred into a new tube and used either directly for the purification of ccfDNA or stored at −20° C. until use.
DNA from plasma was isolated with the QIAamp circulating nucleic acid kit (QIAGEN GmbH), using the protocol for purification of circulating nucleic acids from 1 ml, 2 ml, or 3 ml serum or plasma. If not stated otherwise, 2 ml of plasma was mixed with proteinase K and lysis buffer ACL, incubated for 30 min at 60° C., mixed with buffer ACB, bound on QIAamp Mini columns with the use of a QIAvac 24 Plus vacuum manifold, washed and eluted with 60 μl elution buffer AVE, according to the manufactures recommendations.
ccfDNA from 2 ml plasma was isolated with a preliminary version of the QIAsymphony Circulating DNA protocol and kit (QIAGEN). If not stated otherwise, the QIAsymphony robot mixed 2 ml of plasma with proteinase K, binding buffer and magnetic beads. Beads with bound DNA were washed three times and DNA was eluted using 60 μl elution buffer.
To measure the amount of ccfDNA, a real time PCR assay on Abi Prism HT7900 (Life Technologies) was performed with 3 μl of eluate. In a 20 μl assay volume using QuantiTect Multiplex PCR Kit reagents (QIAGEN GmbH), two fragments of the human 18S rDNA gene were amplified in a multiplex PCR. Total quantification was achieved by comparison with a standard curve generated with human genomic DNA diluted from 3000 to 0.3 genome equivalents (1 genome equivalent equates to around 6.6 μg of human genomic DNA).
Quantification of the 66 bp fragment was used to reflect the total amount of 18S rDNA copies in the plasma. Quantification of the 500 bp was used to determine the amount of 18S rDNA copies which derived from apoptotic or mechanically lysed leukocytes from whole blood. […] The increase of copy numbers from the 500 bp fragment between day 0 and 3 or 6 days storage, was used as a measurement of stability efficiency.
PAXgene Blood ccfDNA Alpha tubes were produced and sterilized by gamma irradiation with different energy levels. Samples of 10 ml whole blood from eight donors were collected in 10 ml spray dry K2EDTA tubes (non-stabilized controls) and in PAXgene Blood ccfDNA Alpha tubes. Plasma was generated from 5 ml of stabilized or non-stabilized blood samples directly after blood draw. Residual blood was stored for additional 6 days at room temperature before plasma generation. ccfDNA was purified manually from 2 ml plasma, copy numbers of 18S rDNA gene were determined in triplicates by real time PCR.
Samples of 10 ml whole blood from eight donors were collected in 10 ml spray dry K2EDTA tubes. Directly after blood draw, non-stabilized blood samples were stabilized by addition of 1.7 ml of a ccfDNA stabilization reagent according to PCT/EP2015/055699 with or without addition of the different compounds tested for their impact on extracellular nucleic acid stabilization.
Plasma was generated from 5 ml of stabilized blood samples directly after the blood draw (day 0).

[2] = HPLC quantification of caspase inhibitor in stabilization reagent before and after gamma irradiation; format: physicochemical; settings: for [Casp] (Pre-Irr) / [Casp] (Post-Irr): 50 ml bulk; for [Casp] (Post-Irr): 25 kGy
Procedure: Caspase inhibitor (Q-VD-OPh) was dissolved and diluted in DMSO for generation of a standard curve. Concentrations of 7.5, 15, 30 and 60 μg/ml were used to generate the standard curve.
Stabilization reagents containing a mixture of caspase inhibitor, EDTA, DMPA and PEG were tested before and after gamma irradiation. Unique peaks for caspase inhibitor were identified and compared to the standard curve for total quantification of caspase inhibitor. The concentration of caspase inhibitor was determined before and after irradiation, and these concentrations were compared for relative quantification.
For the production of PAXgene Blood ccfDNA Alpha blood collection tubes (Alpha BCT), BD standard tubes for 10 ml blood draw were filled with 1.3-1.7 ml ccfDNA stabilization reagent. The exemplary stabilization reagents tested comprised a mixture of caspase inhibitor (Q-VD-OPh), K2EDTA, DMPA, PEG300 and PEG10000, according to PCT/EP2015/055699. A vacuum was applied to the tubes to allow for a 10.25 ml blood draw. Tubes were sterilized by gamma irradiation using Cobalt-60 as energetic gamma ray source in a range of 5 to 35 kGy. […]
Stabilization reagents were produced with or without the addition of radical scavengers and sterilized in bulk by gamma irradiation. The caspase inhibitor concentration was measured by HPLC before and after irradiation to determine the effect of scavenger addition on caspase inhibitor degradation during sterilization by gamma irradiation.
Stabilization reagents according to PCT/EP2015/055699 were produced with or without the addition of radical scavengers in different concentrations and with different concentrations of caspase inhibitor. PAXgene Blood ccfDNA Alpha tubes were produced by filling 1.7 ml of the respective stabilization reagent into a standard Vacutainer. Tubes were sterilized by gamma irradiation with different energy levels. The caspase inhibitor concentration was measured by HPLC before and after irradiation (see Table 7 below).

[3] = 6 donors, 5 days at room temperature, FIG. 10
[4] = scavenger 0.5-10 mg/ml, 0.05-1% (w/v)
[5] = scavenger 1 mg/ml, casp-inh. 5 μM, 0 kGy
[6] = scavenger 1 mg/ml, casp-inh. 5 μM, 20 kGy
[7] = scavenger 1 mg/ml, casp-inh. 5 μM, 30 kGy
[8] = scavenger 5-10 mg/ml, 0.5-1% (w/v)
[9] = scavenger 0.1-1 mg/ml, 0.01-0.1% (w/v)

SMILES: COC(=O)CC(NC(=O)OC(C)(C)C)C(=O)CF [Boc-D-(OMe)-FMK]
copy numbers of the 500 bp fragment of the 18S rDNA gene [1, 3]: comparable to the fragment numbers in blood stabilized with the PAXgene Blood ccfDNA Tube

[Casp] (Pre-Irr) ([2]; scavenger 2 mg/ml-12 mM): 16.468 µg/mL
[Casp] (Post-Irr) ([2]; scavenger 2 mg/ml-12 mM): 14.1849 µg/mL
Protection against gamma irradiation [2, 4]: high
SMILES: CC(=O)N[C@@H](CS)C(=O)O [N-acetyl-L-cysteine]
protection of caspase inhibitors from gamma-irradiation (copy numbers of the 500 bp fragment) ([1]; 0.5 mg/ml in reagent, 30 kGy, 6 donors, 5 days at room temperature, FIG. 10): efficiently protected the caspase inhibitors Boc-D-(OMe)-FMK and Z-VAD (OMe)-FMK from gamma-irradiation
Effect on ccfDNA stability [1, 4]: neutral

HPLC Testing [C-Inh] [2, 5]: 18.2 µg/mL
HPLC Testing [C-Inh] [2, 6]: 7.0 µg/mL
HPLC Testing [C-Inh] [2, 7]: 5.0 µg/mL
HPLC Testing [C-Inh] ([2]; scavenger 2 mg/ml, casp-inh. 5 μM, 10 kGy): 15.2 µg/mL
HPLC Testing [C-Inh] ([2]; scavenger 2 mg/ml, casp-inh. 5 μM, 20 kGy): 10.7 µg/mL
HPLC Testing [C-Inh] ([2]; scavenger 2 mg/ml, casp-inh. 5 μM, 30 kGy): 9.5 µg/mL
[Casp] (Pre-Irr) ([2]; scavenger 5 mg/ml-27.5 mM): 16.522 µg/mL
[Casp] (Post-Irr) ([2]; scavenger 5 mg/ml-27.5 mM): 12.5986 µg/mL
HPLC Testing [C-Inh] ([2]; scavenger 5 mg/ml, casp-inh. 5 μM, 0 kGy): 19.2 µg/mL
HPLC Testing [C-Inh] ([2]; scavenger 5 mg/ml, casp-inh. 5 μM, 10 kGy): 16.0 µg/mL
HPLC Testing [C-Inh] ([2]; scavenger 5 mg/ml, casp-inh. 5 μM, 20 kGy): 12.8 µg/mL
HPLC Testing [C-Inh] ([2]; scavenger 5 mg/ml, casp-inh. 5 μM, 30 kGy): 12.1 µg/mL
HPLC Testing [C-Inh] ([2]; scavenger 5 mg/ml, casp-inh. 10 μM, 0 kGy): 37.7 µg/mL
HPLC Testing [C-Inh] ([2]; scavenger 5 mg/ml, casp-inh. 10 μM, 10 kGy): 31.2 µg/mL
HPLC Testing [C-Inh] ([2]; scavenger 5 mg/ml, casp-inh. 10 μM, 20 kGy): 26.8 µg/mL
HPLC Testing [C-Inh] ([2]; scavenger 5 mg/ml, casp-inh. 10 μM, 30 kGy): 23.7 µg/mL
HPLC Testing [C-Inh] ([2]; scavenger 5 mg/ml, casp-inh. 15 μM, 0 kGy): 55.5 µg/mL
HPLC Testing [C-Inh] ([2]; scavenger 5 mg/ml, casp-inh. 15 μM, 10 kGy): 46.4 µg/mL
HPLC Testing [C-Inh] ([2]; scavenger 5 mg/ml, casp-inh. 15 μM, 20 kGy): 40.6 µg/mL
HPLC Testing [C-Inh] ([2]; scavenger 5 mg/ml, casp-inh. 15 μM, 30 kGy): 35.5 µg/mL
HPLC Testing [C-Inh] ([2]; scavenger 10 mg/ml, casp-inh. 5 μM, 0 kGy): 18.4 µg/mL
HPLC Testing [C-Inh] ([2]; scavenger 10 mg/ml, casp-inh. 5 μM, 10 kGy): 16.0 µg/mL
HPLC Testing [C-Inh] ([2]; scavenger 10 mg/ml, casp-inh. 5 μM, 20 kGy): 13.5 µg/mL
Protection against gamma irradiation [2, 8]: high
SMILES: O=C1O[C@H]([C@@H](O)CO)C(O)=C1O [Ascorbic acid]
average total copy numbers of the 500 bp fragment of the 18S rDNA gene ([1]; scavenger 20 mg/ml, directly after blood collection, FIG. 5): reduced ccfDNA absolute copy numbers
Effect on ccfDNA stability [1, 8]: neutral

SMILES: COC(=O)C[C@H](NC(=O)[C@H](C)NC(=O)[C@@H](NC(=O)OCc1ccccc1)C(C)C)C(=O)CF [Z-VAD (OMe)-FMK, Z-Val-Ala-Asp(OMe)-FMK] (Cbz-Val-Ala-Asp(OMe)-CH2F)
copy numbers of the 500 bp fragment of the 18S rDNA gene [1, 3]: comparable to the fragment numbers in blood stabilized with the PAXgene Blood ccfDNA Tube

HPLC Testing [C-Inh] ([2]; scavenger 0.05 mg/ml, casp-inh. 5 μM, 0 kGy): 19.1 µg/mL
HPLC Testing [C-Inh] ([2]; scavenger 0.05 mg/ml, casp-inh. 5 μM, 10 kGy): 14.1 µg/mL
HPLC Testing [C-Inh] ([2]; scavenger 0.05 mg/ml, casp-inh. 5 μM, 20 kGy): 8.9 µg/mL
HPLC Testing [C-Inh] ([2]; scavenger 0.05 mg/ml, casp-inh. 5 μM, 30 kGy): 6.6 µg/mL
[Casp] (Pre-Irr) ([2]; scavenger 100 μg/ml-320 μM): 16.454 µg/mL
[Casp] (Post-Irr) ([2]; scavenger 100 μg/ml-320 μM): 10.4422 µg/mL
HPLC Testing [C-Inh] ([2]; scavenger 0.1 mg/ml, casp-inh. 5 μM, 0 kGy): 18.8 µg/mL
HPLC Testing [C-Inh] ([2]; scavenger 0.1 mg/ml, casp-inh. 5 μM, 10 kGy): 14.3 µg/mL
HPLC Testing [C-Inh] ([2]; scavenger 0.1 mg/ml, casp-inh. 5 μM, 20 kGy): 9.9 µg/mL
HPLC Testing [C-Inh] ([2]; scavenger 0.1 mg/ml, casp-inh. 5 μM, 30 kGy): 7.5 µg/mL
HPLC Testing [C-Inh] ([2]; scavenger 0.1 mg/ml, casp-inh. 10 μM, 0 kGy): 37.9 µg/mL
HPLC Testing [C-Inh] ([2]; scavenger 0.1 mg/ml, casp-inh. 10 μM, 10 kGy): 29.4 µg/mL
HPLC Testing [C-Inh] ([2]; scavenger 0.1 mg/ml, casp-inh. 10 μM, 20 kGy): 23.3 µg/mL
HPLC Testing [C-Inh] ([2]; scavenger 0.1 mg/ml, casp-inh. 10 μM, 30 kGy): 17.7 µg/mL
HPLC Testing [C-Inh] ([2]; scavenger 0.1 mg/ml, casp-inh. 15 μM, 0 kGy): 55.5 µg/mL
HPLC Testing [C-Inh] ([2]; scavenger 0.1 mg/ml, casp-inh. 15 μM, 10 kGy): 42.7 µg/mL
HPLC Testing [C-Inh] ([2]; scavenger 0.1 mg/ml, casp-inh. 15 μM, 20 kGy): 33.2 µg/mL
HPLC Testing [C-Inh] ([2]; scavenger 0.1 mg/ml, casp-inh. 15 μM, 30 kGy): 25.0 µg/mL
HPLC Testing [C-Inh] ([2]; scavenger 0.2 mg/ml, casp-inh. 5 μM, 0 kGy): 19.9 µg/mL
HPLC Testing [C-Inh] ([2]; scavenger 0.2 mg/ml, casp-inh. 5 μM, 20 kGy): 11.9 µg/mL
HPLC Testing [C-Inh] ([2]; scavenger 0.2 mg/ml, casp-inh. 5 μM, 30 kGy): 10.2 µg/mL
HPLC Testing [C-Inh] ([2]; scavenger 0.5 mg/ml, casp-inh. 5 μM, 10 kGy): 15.4 µg/mL
HPLC Testing [C-Inh] ([2]; scavenger 0.5 mg/ml, casp-inh. 5 μM, 20 kGy): 12.3 µg/mL
HPLC Testing [C-Inh] ([2]; scavenger 0.5 mg/ml, casp-inh. 5 μM, 30 kGy): 11.1 µg/mL
HPLC Testing [C-Inh] [2, 5]: 20.0 µg/mL
HPLC Testing [C-Inh] [2, 6]: 13.8 µg/mL
HPLC Testing [C-Inh] [2, 7]: 12.6 µg/mL
Protection against gamma irradiation [2, 9]: high
SMILES: N[C@@H](CCC(=O)N[C@@H](CS)C(=O)NCC(=O)O)C(=O)O [Glutathione]
Effect on ccfDNA stability [1, 9]: neutral

[Casp] (Pre-Irr) ([2]; scavenger 4 mM): 16.534 µg/mL
[Casp] (Post-Irr) ([2]; scavenger 4 mM): 3.0195 µg/mL
[Casp] (Pre-Irr) ([2]; scavenger 5 mM in DMSO): 16.649 µg/mL
[Casp] (Post-Irr) ([2]; scavenger 5 mM in DMSO): 3.3548 µg/mL
SMILES: Cc1c(C)c2c(c(C)c1O)CCC(C)(C(=O)O)O2 (stereo not drawn) [Trolox, 6-hydroxy-2,5,7,8-tetramethylchromane-2-carboxylic acid]

Protection against gamma irradiation ([2]; scavenger 5 mg/ml, 0.5% (w/v)): none
[Casp] (Pre-Irr) ([2]; scavenger 0.5%): 16.554 µg/mL
[Casp] (Post-Irr) ([2]; scavenger 0.5%): 1.0667 µg/mL
SMILES: OC[C@@H](O)[C@@H](O)[C@H](O)[C@H](O)CO [Mannitol]

Protection against gamma irradiation ([2]; scavenger 1% (v/v)): none
[Casp] (Pre-Irr) ([2]; scavenger 1%): 16.572 µg/mL
[Casp] (Post-Irr) ([2]; scavenger 1%): 0.8517 µg/mL
SMILES: CC(C)O [Isopropanol]

[Casp] (Pre-Irr) ([2]; scavenger 0.6 mM): 16.550 µg/mL
[Casp] (Post-Irr) ([2]; scavenger 0.6 mM): 0.8856 µg/mL
Protection against gamma irradiation ([2]; scavenger 0.74 mg/ml, 0.07% (v/v)): none
SMILES: CCCCCCCC/C=C\CCCCCCCC(=O)OCCOCC(OCCO)C1OCC(OCCO)C1OCCO (stereo not drawn) [Tween-80]

[Casp] (Pre-Irr) ([2]; scavenger 500 μg/ml-2.9 mM): 16.633 µg/mL
[Casp] (Post-Irr) ([2]; scavenger 500 μg/ml-2.9 mM): 0.5888 µg/mL
Protection against gamma irradiation ([2]; scavenger 0.5-2 mg/ml, 0.2% (w/v)): none
SMILES: O=C(O)c1cc(O)c(O)c(O)c1 [Gallic acid]
change of copy numbers (x fold change) of 66 bp and 500 bp fragments of the 18S rDNA gene ([1]; scavenger 2 mg/ml in non-irradiated reagent, 8 donors): lead to an increased release of DNA

SMILES: Cc1ncc(CO)c(CO)c1O [vitamin B6, pyridoxine]
number of 500 bp fragments of the 18S rDNA gene compared to the stabilization reagent without scavenger (irradiated) ([1]; 2 mg/ml in reagent, irradiated (30 kGy) as well as unirradiated, 8 donors, 5 days at room temperature, FIG. 9): only half

SMILES: O=C(OC[C@H]1O[C@@H](OC(=O)c2cc(O)c(O)c(OC(=O)c3cc(O)c(O)c(O)c3)c2)[C@H](OC(=O)c2cc(O)c(O)c(OC(=O)c3cc(O)c(O)c(O)c3)c2)[C@@H](OC(=O)c2cc(O)c(O)c(OC(=O)c3cc(O)c(O)c(O)c3)c2)[C@@H]1OC(=O)c1cc(O)c(O)c(OC(=O)c2cc(O)c(O)c(O)c2)c1)c1cc(O)c(O)c(OC(=O)c2cc(O)c(O)c(O)c2)c1 [Tannic acid]
change of copy numbers (x fold change) of 66 bp and 500 bp fragments of the 18S rDNA gene ([1]; scavenger 1 mg/ml in non-irradiated reagent, 8 donors): lead to an increased release of DNA
